Data on 17 compounds can be found in patent publication US20110313156A1 (BOEHRINGER INGELHEIM INTERNATIONAL GMBH, priority 2008, published 2011).

Molecules are shown by their SMILES.

The assay deals with T1, His6-PDK1 (aa 52-556) (Homo sapiens, UniProt O15530).
T1 construct: 15 μL His6-PDK1 (aa 52-556) 3.33 ng/well); host or cells: baculovirus-infected insect cells
T1 sequence (O15530 52-556): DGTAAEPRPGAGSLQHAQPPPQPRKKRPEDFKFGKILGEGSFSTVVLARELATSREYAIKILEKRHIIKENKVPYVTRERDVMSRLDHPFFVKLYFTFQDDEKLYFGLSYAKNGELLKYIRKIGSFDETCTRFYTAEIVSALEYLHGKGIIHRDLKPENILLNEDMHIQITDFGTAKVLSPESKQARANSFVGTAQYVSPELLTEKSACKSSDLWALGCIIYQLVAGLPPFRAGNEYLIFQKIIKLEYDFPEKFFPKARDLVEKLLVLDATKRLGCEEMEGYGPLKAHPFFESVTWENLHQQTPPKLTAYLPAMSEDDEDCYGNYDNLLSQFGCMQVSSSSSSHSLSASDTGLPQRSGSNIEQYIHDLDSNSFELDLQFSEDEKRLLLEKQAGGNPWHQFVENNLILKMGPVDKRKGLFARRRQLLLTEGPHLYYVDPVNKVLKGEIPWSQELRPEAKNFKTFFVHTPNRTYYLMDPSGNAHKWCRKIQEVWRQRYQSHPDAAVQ
Put plainly: PDK1 kinase assay III (with Tween 20). The assay is classed as biochemical. As to conditions: compound at 10 μM; PDK1 kinase assay III (values without asterisk); read-out: % CTL (residual activity of the enzyme relative to DMSO control). An outline of the steps: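 Started with ATP, incubated 90 min at ambient temperature, then stopped with phosphoric acid. Asterisked values come from assay II (24 h or 5 min incubation).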

Regarding `Cc1c(C(=O)NC/C=C/c2ccc3nc(Nc4ccc(CN(C)C)cc4)ncc3c2)c(=O)n(Cc2ccccc2)n1C` [IV-19, 2-benzyl-N-{(2E)-3-[2-({4-[(dimethylamino)methyl]phenyl}amino)quinazolin-6-yl]prop-2-en-1-yl}-1,5-dimethyl-3-oxo-2,3-dihydro-1H-pyrazole-4-carboxamide], the remaining activity at 10 µM worked out at 12.6%.

As to `Cc1c(C(=O)NC/C=C/c2ccc3nc(Nc4ccc(CN(C)C)cc4)ncc3c2)c(=O)n(Cc2cc(F)c(F)c(F)c2)n1C` [IV-20, N-{(2E)-3-[2-({4-[(dimethylamino)methyl]phenyl}amino)quinazolin-6-yl]prop-2-en-1-yl}-1,5-dimethyl-3-oxo-2-(3,4,5-trifluorobenzyl)-2,3-dihydro-1H-pyrazole-4-carboxamide], the remaining activity at 10 µM is 14.3%.

Take `Cc1c(C(=O)NC/C=C/c2ccc3nc(Nc4ccc(CN(C)C)cc4)ncc3c2)c(=O)n(Cc2ccc(F)c(F)c2)n1C` [IV-21, 2-(3,4-difluorobenzyl)-N-{(2E)-3-[2-({4-[(dimethylamino)methyl]phenyl}amino)-quinazolin-6-yl]prop-2-en-1-yl}-1,5-dimethyl-3-oxo-2,3-dihydro-1H-pyrazole-4-carboxamide]: the remaining activity at 10 µM stood at 11.2%.

Regarding `CN(C)Cc1ccc(Nc2ncc3cc(/C=C/CNC(=O)c4cn(C)c(=O)n(Cc5ccc(F)c(F)c5)c4=O)ccc3n2)cc1` [IV-22, 3-(3,4-difluorobenzyl)-N-{(2E)-3-[2-({4-[(dimethylamino)methyl]phenyl}amino)-quinazolin-6-yl]prop-2-en-1-yl}-1-methyl-2,4-dioxo-1,2,3,4-tetrahydropyrimidine-5-carboxamide], the remaining activity at 10 µM is 19.7%.

As for `CN(C)Cc1ccc(Nc2ncc3cc(CCCNC(=O)c4cncn(Cc5ccc(F)c(F)c5)c4=O)ccc3n2)cc1` [IV-23, 1-(3,4-difluorobenzyl)-N-{3-[2-({4-[(dimethylamino)methyl]phenyl}amino)quinazolin-6-yl]propyl}-6-oxo-1,6-dihydropyrimidine-5-carboxamide], the remaining activity at 10 µM was 16.8%.

In the case of `O=C(NCc1ccc(Nc2ncnc3[nH]c(-c4ccccc4)cc23)cc1)c1cncn(Cc2ccc(F)c(F)c2)c1=O` [IV-24, 1-(3,4-difluorobenzyl)-6-oxo-N-{4-[(6-phenyl-7H-pyrrolo[2,3-d]pyrimidin-4-yl)amino]benzyl}-1,6-dihydropyrimidine-5-carboxamide], the remaining activity at 10 µM stood at 15.7%.

As to `Cc1c(C(=O)NCc2ccc(Nc3ncnc4[nH]c(-c5ccccc5)cc34)cc2)c(=O)n(Cc2ccc(F)c(F)c2)n1C` [IV-25, 2-(3,4-difluorobenzyl)-1,5-dimethyl-3-oxo-N-{4-[(6-phenyl-7H-pyrrolo[2,3-d]-pyrimidin-4-yl)amino]benzyl}-2,3-dihydro-1H-pyrazole-4-carboxamide], the remaining activity at 10 µM was 33.5%.

For the compound `CN(C)Cc1ccc(-c2cc3c(Nc4ccc(CNC(=O)c5cncn(Cc6ccc(F)c(F)c6)c5=O)cc4)ncnc3[nH]2)cc1` [IV-26, 1-(3,4-difluorobenzyl)-N-{4-[(6-{4-[(dimethylamino)methyl]phenyl}-7H-pyrrolo[2,3-d]pyrimidin-4-yl)amino]benzyl}-6-oxo-1,6-dihydropyrimidine-5-carboxamide], the remaining activity at 10 µM is 20.9%.

Consider `O=C(NCc1ccc(Nc2ncnc3[nH]ccc23)cc1)c1cncn(Cc2ccc(F)c(F)c2)c1=O` [IV-27, 1-(3,4-difluorobenzyl)-6-oxo-N-[4-(7H-pyrrolo[2,3-d]pyrimidin-4-ylamino)benzyl]-1,6-dihydropyrimidine-5-carboxamide], for which the remaining activity at 10 µM amounted to 43.9%.

Consider `CN(C)Cc1ccc(Nc2ncc3cc(N4CC[C@@H](NC(=O)c5cncn(Cc6ccc(F)c(F)c6)c5=O)C4)ccc3n2)cc1` [IV-29, 1-(3,4-difluorobenzyl)-N-{(3R)-1-[2-({4-[(dimethylamino)methyl]phenyl}amino)-quinazolin-6-yl]pyrrolidin-3-yl}-6-oxo-1,6-dihydropyrimidine-5-carboxamide], for which the remaining activity at 10 µM came out at 14.7%.

Take `CN(C)Cc1ccc(Nc2ncc3cc(/C=C(\F)CNC(=O)c4cncn(Cc5ccc(F)c(F)c5)c4=O)ccc3n2)cc1` [IV-30, 1-(3,4-difluorobenzyl)-N-{(2Z)-3-[2-({4-[(dimethylamino)methyl]phenyl}amino)-quinazolin-6-yl]-2-fluoroprop-2-en-1-yl}-6-oxo-1,6-dihydropyrimidine-5-carboxamide]: the remaining activity at 10 µM amounted to 13.7%.

As to `CN(C)Cc1ccc(Nc2ncc3cc(N4CC(NC(=O)c5cncn(Cc6ccc(F)c(F)c6)c5=O)C4)ccc3n2)cc1` [IV-31, 1-(3,4-difluorobenzyl)-N-{1-[2-({4-[(dimethylamino)methyl]phenyl}amino)quinazolin-6-yl]azetidin-3-yl}-6-oxo-1,6-dihydropyrimidine-5-carboxamide], the remaining activity at 10 µM came out at 20.2%.

Regarding `CC(/C=C/c1ccc2nc(Nc3ccc(CN(C)C)cc3)ncc2c1)NC(=O)c1cncn(Cc2ccc(F)c(F)c2)c1=O` (centres unmarked) [IV-32, 1-(3,4-difluorobenzyl)-N-{(3E)-4-[2-({4-[(dimethylamino)methyl]phenyl}amino)-quinazolin-6-yl]but-3-en-2-yl}-6-oxo-1,6-dihydropyrimidine-5-carboxamide], the remaining activity at 10 µM worked out at 19%.

Take `CN(C)Cc1ccc(Nc2ncc3c(F)c(/C=C/CNC(=O)c4cncn(Cc5ccc(F)c(F)c5)c4=O)ccc3n2)cc1` [IV-33, 1-(3,4-difluorobenzyl)-N-{(2E)-3-[2-({4-[(dimethylamino)methyl]phenyl}amino)-5-fluoroquinazolin-6-yl]prop-2-en-1-yl}-6-oxo-1,6-dihydropyrimidine-5-carboxamide]: the remaining activity at 10 µM stood at 14.9%.

On to `Cc1c(C(=O)NC/C=C/c2ccc3nc(Nc4ccc(CN(C)C)cc4)ncc3c2F)c(=O)n(Cc2ccc(F)c(F)c2)n1C` [IV-34, 2-(3,4-difluorobenzyl)-N-{(2E)-3-[2-({4-[(dimethylamino)methyl]phenyl}amino)-5-fluoroquinazolin-6-yl]prop-2-en-1-yl}-1,5-dimethyl-3-oxo-2,3-dihydro-1H-pyrazole-4-carboxamide], for which the remaining activity at 10 µM worked out at 14.4%.

For the compound `CN1CCC(N(C)c2ccc(Nc3ncc4c(F)c(/C=C/CNC(=O)c5cncn(Cc6ccc(F)c(F)c6)c5=O)ccc4n3)cc2)CC1` [IV-35, 1-(3,4-difluorobenzyl)-N-{(2E)-3-[5-fluoro-2-({4-[methyl(1-methylpiperidin-4-yl)amino]phenyl}amino)quinazolin-6-yl]prop-2-en-1-yl}-6-oxo-1,6-dihydropyrimidine-5-carboxamide], the remaining activity at 10 µM is 13.9%.

Regarding `Cc1c(C(=O)NC/C=C/c2ccc3nc(Nc4ccc(N(C)C5CCN(C)CC5)cc4)ncc3c2F)c(=O)n(Cc2ccc(F)c(F)c2)n1C` [IV-36, 2-(3,4-difluorobenzyl)-N-{(2E)-3-[5-fluoro-2-({4-[methyl(1-methylpiperidin-4-yl)amino]phenyl}amino)quinazolin-6-yl]prop-2-en-1-yl}-1,5-dimethyl-3-oxo-2,3-dihydro-1H-pyrazole-4-carboxamide], the remaining activity at 10 µM came to 14.2%.
